Results as given in ChEMBL document CHEMBL1201862, “PubChem BioAssay data set” (2004).
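96-well plates; 48 h exposure; 5 concentrations. Endpoints by linear interpolation between flanking doses. Not reached: highest tested concentration assigned. GI50 is the concentration that inhibits growth by half.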 Activity calls are given as the source filed them. Rule as the data show it: active = GI50 up to about 1.1 µM and inactive = higher.

What was measured:
Assay in all cases: DTP human tumour cell line panel, 48 h
[1] = tested on: A549
[2] = tested on: TK-10
[3] = tested on: Hs-578T
[4] = tested on: T47D
[5] = tested on: DU-145
[6] = tested on: ACHN
[7] = tested on: KM12
[8] = tested on: MOLT-4
[9] = tested on: EKVX
[10] = tested on: Malme-3M
[11] = tested on: K562
[12] = tested on: OVCAR-3
[13] = tested on: MCF7
[14] = tested on: IGROV-1
[15] = tested on: HT-29
[16] = tested on: HL-60
[17] = tested on: 786-0
[18] = tested on: MDA-MB-435
[19] = tested on: HCT-116
[20] = tested on: RXF 393
[21] = tested on: MDA-N
[22] = tested on: NCI-H522
[23] = tested on: SR
[24] = tested on: MDA-MB-231
[25] = tested on: SK-MEL-2
[26] = tested on: SF-539
[27] = tested on: SK-MEL-28
[28] = tested on: UACC-257
[29] = tested on: RPMI-8226
[30] = tested on: SF-268
[31] = tested on: NCI-H23
[32] = tested on: SW-620
[33] = tested on: NCI-H460
[34] = tested on: CAKI-1
[35] = tested on: SK-MEL-5
[36] = tested on: COLO 205
[37] = tested on: OVCAR-5
[38] = tested on: SK-OV-3
[39] = tested on: SNB-19
[40] = tested on: SF-295
[41] = tested on: NCI/ADR-RES
[42] = tested on: HCT-15
[43] = tested on: UACC-62
[44] = tested on: OVCAR-8
[45] = tested on: CCRF-CEM
[46] = tested on: LOX IMVI
[47] = tested on: OVCAR-4
[48] = tested on: BT-549
[49] = tested on: U-251
[50] = tested on: UO-31
[51] = tested on: M14
[52] = tested on: HOP-92
[53] = tested on: A498
[54] = tested on: SN12C
[55] = tested on: PC-3
[56] = tested on: HOP-62
[57] = tested on: NCI-H226
[58] = tested on: HCC 2998
[59] = tested on: SNB-75

Cc1cc(C)n(CN(CCCCO)Cn2nc(C)cc2C)n1 was tested, and the GI50 [1] was 49.2 µM (inactive), the GI50 [2] was 73.8 µM (inactive) and the GI50 [3] was > 100 µM (inactive). For the same compound, the GI50 [4] was 25.6 µM (inactive), the GI50 [5] was 24.8 µM (inactive) and the GI50 [6] was 17.5 µM (inactive). The GI50 [7] was 23 µM (inactive), the GI50 [8] was 14.2 µM (inactive) and the GI50 [9] was 35.3 µM (inactive). The GI50 [10] was 22.9 µM (inactive), the GI50 [11] was 19.9 µM (inactive) and the GI50 [12] was 27.9 µM (inactive). The GI50 [13] was 26.8 µM (inactive), the GI50 [14] was 26.9 µM (inactive) and the GI50 [15] was 17.9 µM (inactive). For the same compound, the GI50 [16] was 23.3 µM (inactive), the GI50 [17] was 14.8 µM (inactive) and the GI50 [18] was 19.4 µM (inactive). For the same compound, the GI50 [19] was 20 µM (inactive), the GI50 [20] was 18.8 µM (inactive) and the GI50 [21] was 17.5 µM (inactive). For the same compound, the GI50 [22] was 23.8 µM (inactive), the GI50 [23] was 4.82 µM (inactive) and the GI50 [24] was 29.9 µM (inactive). For the same compound, the GI50 [25] was 22.2 µM (inactive), the GI50 [26] was 18.6 µM (inactive) and the GI50 [27] was 17.7 µM (inactive). The GI50 [28] was 25.5 µM (inactive), the GI50 [29] was 3.21 µM (inactive) and the GI50 [30] was 25.6 µM (inactive). The GI50 [31] was 24.3 µM (inactive), the GI50 [32] was 21.7 µM (inactive) and the GI50 [33] was 52.7 µM (inactive). For the same compound, the GI50 [34] was 34.4 µM (inactive), the GI50 [35] was 34.1 µM (inactive) and the GI50 [36] was 17.2 µM (inactive). The GI50 [37] was 23.2 µM (inactive), the GI50 [38] was > 100 µM (inactive) and the GI50 [39] was 57.1 µM (inactive). The GI50 [40] was > 100 µM (inactive), the GI50 [41] was 18.2 µM (inactive) and the GI50 [42] was 17.5 µM. The GI50 [43] was 19.1 µM (inactive), the GI50 [44] was 19.2 µM (inactive) and the GI50 [45] was 0.178 µM (active). The GI50 [46] was 22.8 µM (inactive), the GI50 [47] was 24.7 µM (inactive) and the GI50 [48] was 23 µM (inactive). The GI50 [49] was 22.4 µM (inactive), the GI50 [50] was 27.7 µM (inactive) and the GI50 [51] was 18.5 µM (inactive). The GI50 [52] was 22 µM (inactive), the GI50 [53] was > 100 µM (inactive) and the GI50 [54] was 26 µM (inactive). For the same compound, the GI50 [55] was 20.2 µM (inactive) and the GI50 [56] was 21.8 µM (inactive).

For CC(C)c1cc(C(C)C)c(B(c2ccccc2)c2ccccc2)c(C(C)C)c1Br, the GI50 [1] was > 100 µM (inactive), the GI50 [2] was > 100 µM (inactive) and the GI50 [3] was > 100 µM (inactive). For the same compound, the GI50 [4] was > 100 µM (inactive), the GI50 [5] was > 100 µM (inactive) and the GI50 [6] was > 100 µM (inactive). The GI50 [7] was > 100 µM (inactive), the GI50 [8] was > 100 µM (inactive) and the GI50 [9] was > 100 µM (inactive). The GI50 [10] was > 100 µM (inactive), the GI50 [11] was > 100 µM (inactive) and the GI50 [12] was > 100 µM (inactive). The GI50 [13] was > 100 µM (inactive), the GI50 [14] was > 100 µM (inactive) and the GI50 [15] was > 100 µM (inactive). The GI50 [16] was > 100 µM (inactive), the GI50 [17] was > 100 µM (inactive) and the GI50 [18] was > 100 µM (inactive). For the same compound, the GI50 [19] was > 100 µM (inactive), the GI50 [20] was > 100 µM (inactive) and the GI50 [21] was > 100 µM (inactive). The GI50 [22] was > 100 µM (inactive), the GI50 [23] was > 100 µM (inactive) and the GI50 [57] was > 100 µM (inactive). The GI50 [24] was > 100 µM (inactive), the GI50 [25] was > 100 µM (inactive) and the GI50 [26] was > 100 µM (inactive). For the same compound, the GI50 [58] was > 100 µM (inactive), the GI50 [27] was > 100 µM (inactive) and the GI50 [28] was > 100 µM (inactive). For the same compound, the GI50 [30] was > 100 µM (inactive), the GI50 [31] was > 100 µM (inactive) and the GI50 [32] was > 100 µM (inactive). For the same compound, the GI50 [33] was > 100 µM (inactive), the GI50 [34] was > 100 µM (inactive) and the GI50 [35] was > 100 µM (inactive). For the same compound, the GI50 [36] was > 100 µM (inactive), the GI50 [37] was > 100 µM (inactive) and the GI50 [38] was > 100 µM (inactive). The GI50 [39] was > 100 µM (inactive), the GI50 [40] was > 100 µM (inactive) and the GI50 [41] was > 100 µM (inactive). For the same compound, the GI50 [42] was > 100 µM, the GI50 [43] was > 100 µM (inactive) and the GI50 [44] was > 100 µM (inactive). For the same compound, the GI50 [45] was > 100 µM (inactive), the GI50 [46] was > 100 µM (inactive) and the GI50 [47] was > 100 µM (inactive). The GI50 [48] was > 100 µM (inactive), the GI50 [49] was > 100 µM (inactive) and the GI50 [50] was > 100 µM (inactive). The GI50 [51] was > 100 µM (inactive), the GI50 [52] was > 100 µM (inactive) and the GI50 [53] was > 100 µM (inactive). The GI50 [54] was > 100 µM (inactive), the GI50 [55] was > 100 µM (inactive) and the GI50 [56] was > 100 µM (inactive).

With COC(=O)C1=C(C(=O)OC)c2cc(OC)ccc2C(C(=S)N(C)C)S1 (stereo unspecified) the GI50 [1] was > 100 µM (inactive), the GI50 [2] was > 100 µM (inactive) and the GI50 [3] was > 100 µM (inactive). For the same compound, the GI50 [4] was > 100 µM (inactive), the GI50 [5] was > 100 µM (inactive) and the GI50 [6] was > 100 µM (inactive). The GI50 [7] was > 100 µM (inactive), the GI50 [8] was > 100 µM (inactive) and the GI50 [9] was > 100 µM (inactive). The GI50 [10] was > 100 µM (inactive), the GI50 [11] was > 100 µM (inactive) and the GI50 [12] was > 100 µM (inactive). The GI50 [13] was > 100 µM (inactive), the GI50 [14] was > 100 µM (inactive) and the GI50 [17] was > 100 µM (inactive). For the same compound, the GI50 [18] was > 100 µM (inactive), the GI50 [59] was > 100 µM (inactive) and the GI50 [19] was > 100 µM (inactive). The GI50 [20] was > 100 µM (inactive), the GI50 [21] was > 100 µM (inactive) and the GI50 [23] was > 100 µM (inactive). The GI50 [57] was > 100 µM (inactive), the GI50 [24] was > 100 µM (inactive) and the GI50 [25] was > 100 µM (inactive). The GI50 [58] was > 100 µM (inactive), the GI50 [27] was > 100 µM (inactive) and the GI50 [28] was > 100 µM (inactive). The GI50 [29] was > 100 µM (inactive), the GI50 [30] was > 100 µM (inactive) and the GI50 [31] was > 100 µM (inactive). The GI50 [32] was > 100 µM (inactive), the GI50 [33] was > 100 µM (inactive) and the GI50 [34] was 99.1 µM (inactive). For the same compound, the GI50 [36] was > 100 µM (inactive), the GI50 [37] was > 100 µM (inactive) and the GI50 [38] was > 100 µM (inactive). For the same compound, the GI50 [39] was > 100 µM (inactive), the GI50 [40] was > 100 µM (inactive) and the GI50 [41] was > 100 µM (inactive). The GI50 [42] was > 100 µM, the GI50 [43] was > 100 µM (inactive) and the GI50 [44] was > 100 µM (inactive). For the same compound, the GI50 [46] was > 100 µM (inactive), the GI50 [47] was > 100 µM (inactive) and the GI50 [48] was 19.2 µM (inactive). The GI50 [49] was > 100 µM (inactive), the GI50 [50] was > 100 µM (inactive) and the GI50 [51] was > 100 µM (inactive). For the same compound, the GI50 [52] was 0.0111 µM (active), the GI50 [53] was > 100 µM (inactive) and the GI50 [54] was > 100 µM (inactive). The GI50 [55] was > 100 µM (inactive) and the GI50 [56] was > 100 µM (inactive).
